The values below come from ChEMBL document CHEMBL1137545, “Antiproliferative activities of a library of hybrids between indanones and HDAC inhibitor SAHA and MS-275 analogues” (Bioorg Med Chem Lett, 2007).

The structures appear in SMILES notation. Calls of active or inactive are those of the source. The calls are words filed in the database; no cut-off is given here.

Test system in the first experiment: not listed separately
Put plainly: Antiproliferative activity against H661 cells after 48 hrs. It is filed as functional, cell-based. Particulars: Homo sapiens, NCI-H661, 48 h.
As usually defined, the IC50 is the concentration at which inhibition is half-maximal. The compound `CC(/C=C/C(=O)NO)=C\[C@@H](C)C(=O)c1ccc(N(C)C)cc1` [TRICHOSTATIN] gave an IC50 of 0.085 µM. In the case of `CC1(CCCCCCC(=O)NO)Cc2ccccc2C1=O` (centres undefined), the midpoint of inhibition, the IC50, lay at 20 µM. Regarding `CC1(CCCCC(=O)NO)Cc2ccccc2C1=O` (centres undefined), the IC50 was > 25 µM.

In another experiment the test system is NCI-H661. Kind of experiment: Antiproliferative activity against H661 cells at 25 uM after 48 hrs. The format is functional, cell-based. Conditions: Homo sapiens.
In the case of `CC1(Cc2nc(C(=O)Nc3ccccc3N)cs2)Cc2ccccc2C1=O` (centres undefined), the outcome was inactive.

As to `CN(C)c1ccc2c(c1)CC(C)(CCCCC(=O)NO)C2=O` (centres undefined), the outcome was inactive. The same measure, in the same setting: the entry for `CC1(CCCCCC(=O)NO)Cc2ccccc2C1=O` (centres undefined) is “inactive”; for `CC1(Cc2cccc(C(=O)Nc3ccccc3N)c2)Cc2ccccc2C1=O` (centres undefined) it is “inactive”; for `CC1(Cc2nc(C(=O)NO)cs2)Cc2ccccc2C1=O` (centres undefined) it is “inactive”. Consider `CC1(Cc2cccc(C(=O)NO)c2)Cc2ccccc2C1=O` (centres undefined), for which the result was inactive.
